The values below come from patent publication US8173638B2 (Boehringer Ingelheim International GmbH, priority 2006, dated 2012).

T1 sequence (P34972 whole entry): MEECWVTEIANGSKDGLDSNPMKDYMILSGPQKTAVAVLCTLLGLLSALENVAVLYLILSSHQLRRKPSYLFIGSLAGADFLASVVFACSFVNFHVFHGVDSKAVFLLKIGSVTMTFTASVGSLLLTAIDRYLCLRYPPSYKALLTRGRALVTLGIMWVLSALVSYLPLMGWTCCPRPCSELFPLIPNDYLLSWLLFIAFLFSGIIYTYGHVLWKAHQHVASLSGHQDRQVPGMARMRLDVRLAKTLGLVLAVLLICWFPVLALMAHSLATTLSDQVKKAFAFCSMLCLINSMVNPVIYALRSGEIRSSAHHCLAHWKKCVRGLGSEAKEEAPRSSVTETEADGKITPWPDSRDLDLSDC

The assay concerns the target T1, human CB2R (Homo sapiens, UniProt P34972).
T1 construct: host or cells: CHO cells
Put plainly: CB2R mediated modulation of cAMP synthesis. To be noted: found through the use of the described assays (CB2 agonists); qualitative statement. In kind it is cell-based. On the procedure: B. CB2R Mediated Modulation of cAMP Synthesis:
CHO cells expressing human CB2R (Euroscreen) were plated at a density of 5000 cells per well in 384 well plates and incubated overnight at 37° C. After removing the media, the cells were treated with test compounds diluted in stimulation buffer containing 1 mM IBMX, 0.25% BSA and 10 uM Forskolin. The assay was incubated for 30 minutes at 37° C. Cells were lysed and the cAMP concentration was measured using DiscoverX-XS cAMP kit, following the manufacturer's protocol. In this setting, agonists will decrease forskolin induced production of cAMP while inverse agonists will further increase forskolin induced production of cAMP. EC50 of agonists were calculated as follows. The maximal amount of cAMP produced by forskolin compared to the level of cAMP inhibited by 1 uM CP55940 is defined as 100%. […] Data was analyzed using a four-parameter logistic model. (Model 205 of XLfit 4.0).
On to `CCCCc1ccc(NC(=O)N2CCCN(C(=O)C3CCCCC3)CC2)cc1`, for which the agonistic activity entry was “agonistic activity”.

For `CCCCc1ccc(NC(=O)N2CCCN(C(=O)CC3CCCC3)CC2)cc1`, the agonistic activity result was “agonistic activity”.

Take `O=C(Nc1ccc(C(F)(F)F)cc1)N1CCCN(C(=O)c2ccc(C(F)(F)F)cc2)CC1`: the agonistic activity entry is given as “agonistic activity”.

For the molecule `Cc1onc(NC(=O)N2CCCN(C(=O)C3CCOCC3)CC2)c1C`, the agonistic activity entry was “agonistic activity”.

For `CC(C)(C)c1cc(NC(=O)N2CCCN(C(=O)Nc3ccccc3)CC2)no1`, the agonistic activity entry is listed as “agonistic activity”.

Turning to `CC(C)(C)c1cc(NC(=O)N2CCCN(C(=O)NC3CCOCC3)CC2)no1`, the agonistic activity entry is given as “agonistic activity”.

Consider `CC(C)(C)c1cc(NC(=O)N2CCCN(C(=O)NC3CCCC3)CC2)no1`, for which the agonistic activity entry is reported as “agonistic activity”.

For `CC(C)(C)c1cc(NC(=O)N2CCCN(C(=O)NC3CCCCC3)CC2)no1`, the agonistic activity result is reported as “agonistic activity”.

In the case of `CC(C)(C)c1cc(NC(=O)N2CCCN(C(=O)N3CCS(=O)(=O)CC3)CC2)on1` [4-(1,1-Dioxo-1λ^6-thiomorpholine-4-carbonyl)-[1,4]diazepane-1-carboxylic acid (3-tert-butyl-isoxazol-5-yl)-amide], the agonistic activity result is given as “agonistic activity”.

In the case of `CC(C)(C)c1cccc(NC(=O)N2CCCN(C(=O)N3CCS(=O)(=O)CC3)CC2)c1` [4-(1,1-Dioxo-1λ^6-thiomorpholine-4-carbonyl)-[1,4]diazepane-1-carboxylic acid (3-tert-butyl-phenyl)-amide], the agonistic activity entry is given as “agonistic activity”.

As for `O=C(Nc1nc2c(s1)CCCC2)N1CCCN(C(=O)N2CCS(=O)(=O)CC2)CC1` [4-(1,1-Dioxo-1λ^6-thiomorpholine-4-carbonyl)-[1,4]diazepane-1-carboxylic acid (4,5,6,7-tetrahydro-benzothiazol-2-yl)-amide], the agonistic activity entry is “agonistic activity”.

Take `CCC(C)c1ccc(NC(=O)N2CCCN(C(=O)N3CCS(=O)(=O)CC3)CC2)cc1` (centres unmarked) [4-(1,1-Dioxo-1λ^6-thiomorpholine-4-carbonyl)-[1,4]diazepane-1-carboxylic acid (4-sec-butyl-phenyl)-amide]: the agonistic activity entry is on record as “agonistic activity”.

Turning to `CC(C)(C)c1ccc(NC(=O)N2CCCN(C(=O)N3CCS(=O)(=O)CC3)CC2)cc1` [4-(1,1-Dioxo-1λ^6-thiomorpholine-4-carbonyl)-[1,4]diazepane-1-carboxylic acid (4-tert-butyl-phenyl)-amide], the agonistic activity result is “agonistic activity”.

For `CC(C)c1cnc(NC(=O)N2CCCN(C(=O)N3CCS(=O)(=O)CC3)CC2)s1` [4-(1,1-Dioxo-1λ^6-thiomorpholine-4-carbonyl)-[1,4]diazepane-1-carboxylic acid (5-isopropyl-thiazol-2-yl)-amide], the agonistic activity result was “agonistic activity”.

Turning to `CC(C)(C)c1cnc(NC(=O)N2CCCN(C(=O)N3CCS(=O)(=O)CC3)CC2)s1` [4-(1,1-Dioxo-1λ^6-thiomorpholine-4-carbonyl)-[1,4]diazepane-1-carboxylic acid (5-tert-butyl-thiazol-2-yl)-amide], the agonistic activity entry is reported as “agonistic activity”.

With `CC(c1ccc(NC(=O)N2CCCN(C(=O)N3CCS(=O)(=O)CC3)CC2)cc1)C(F)(F)F` (centres unmarked) [4-(1,1-Dioxo-1λ^6-thiomorpholine-4-carbonyl)-[1,4]diazepane-1-carboxylic acid [4-(2,2,2-trifluoro-1-methyl-ethyl)-phenyl]-amide], the agonistic activity entry is “agonistic activity”.

For the molecule `CC(C)(C)c1cc(NC(=O)N2CCCN(C(=O)C3CCS(=O)(=O)CC3)CC2)no1` [4-(1,1-Dioxo-hexahydro-1λ^6-thiopyran-4-carbonyl)-[1,4]diazepane-1-carboxylic acid (5-tert-butyl-isoxazol-3-yl)-amide], the agonistic activity result is listed as “agonistic activity”.

As for `CC(=O)N1CCC(C(=O)N2CCCN(C(=O)Nc3cc(C(C)(C)C)on3)CC2)CC1` [4-(1-Acetyl-piperidine-4-carbonyl)-[1,4]diazepane-1-carboxylic acid (5-tert-butyl-isoxazol-3-yl)-amide], the agonistic activity result is “agonistic activity”.

As for `CC(C)(C)c1cc(NC(=O)N2CCCN(C(=O)C3CCCN(S(C)(=O)=O)C3)CC2)no1` (centres unmarked) [4-(1-Methanesulfonyl-piperidine-3-carbonyl)-[1,4]diazepane-1-carboxylic acid (5-tert-butyl-isoxazol-3-yl)-amide], the agonistic activity entry was “agonistic activity”.

For the molecule `CC(C)(C)c1cc(NC(=O)N2CCCN(C(=O)C3CCN(S(C)(=O)=O)CC3)CC2)no1` [4-(1-Methanesulfonyl-piperidine-4-carbonyl)-[1,4]diazepane-1-carboxylic acid (5-tert-butyl-isoxazol-3-yl)-amide], the agonistic activity entry is on record as “agonistic activity”.

With `CC1(C(=O)N2CCCN(C(=O)Nc3cc(C(C)(C)C)on3)CC2)CCCCC1` [4-(1-Methyl-cyclohexanecarbonyl)-[1,4]diazepane-1-carboxylic acid (5-tert-butyl-isoxazol-3-yl)-amide], the agonistic activity result is given as “agonistic activity”.

For `CC(C)(C)c1cc(NC(=O)N2CCCN(C(=O)N3CC[S+]([O-])CC3)CC2)no1` [4-(1-Oxo-1λ^4-thiomorpholine-4-carbonyl)-[1,4]diazepane-1-carboxylic acid (5-tert-butyl-isoxazol-3-yl)-amide], the agonistic activity result was “agonistic activity”.

As for `CC(C)(C)C(=O)N1CCCN(C(=O)Nc2ccc(C(C)(C)C)cc2)CC1` [4-(2,2-Dimethyl-propionyl)-[1,4]diazepane-1-carboxylic acid (4-tert-butyl-phenyl)-amide], the agonistic activity entry is given as “agonistic activity”.

For `CC(C)(C)C(=O)N1CCCN(C(=O)Nc2cc(C(C)(C)C)on2)CC1` [4-(2,2-Dimethyl-propionyl)-[1,4]diazepane-1-carboxylic acid (5-tert-butyl-isoxazol-3-yl)-amide], the agonistic activity result is recorded as “agonistic activity”.

Turning to `CC(C)(C)C(=O)N1CCCN(C(=O)Nc2ccc3ccccc3c2)CC1` [4-(2,2-Dimethyl-propionyl)-[1,4]diazepane-1-carboxylic acid naphthalen-2-ylamide], the agonistic activity result is “agonistic activity”.

Take `O=C(Nc1ccc2ccccc2c1)N1CCCN(C(=O)c2cc(Cl)ccc2Cl)CC1` [4-(2,5-Dichloro-benzoyl)-[1,4]diazepane-1-carboxylic acid naphthalen-2-ylamide]: the agonistic activity result was “agonistic activity”.

Regarding `O=C(CC1CCCCC1)N1CCCN(C(=O)Nc2ccc3ccccc3c2)CC1` [4-(2-Cyclohexyl-acetyl)-[1,4]diazepane-1-carboxylic acid (2-naphthyl)-amide], the agonistic activity result is reported as “agonistic activity”.

With `CCCCc1ccc(NC(=O)N2CCCN(C(=O)CC3CCCCC3)CC2)cc1` [4-(2-Cyclohexyl-acetyl)-[1,4]diazepane-1-carboxylic acid (4-butyl-phenyl)-amide], the agonistic activity result is reported as “agonistic activity”.

With `CCc1ccc(NC(=O)N2CCCN(C(=O)CC3CCCCC3)CC2)cc1` [4-(2-Cyclohexyl-acetyl)-[1,4]diazepane-1-carboxylic acid (4-ethyl-phenyl)-amide], the agonistic activity entry is given as “agonistic activity”.

For the molecule `CC(C)c1ccc(NC(=O)N2CCCN(C(=O)CC3CCCCC3)CC2)cc1` [4-(2-Cyclohexyl-acetyl)-[1,4]diazepane-1-carboxylic acid (4-isopropyl-phenyl)-amide], the agonistic activity entry is on record as “agonistic activity”.

With `CC(C)(C)c1ccc(NC(=O)N2CCCN(C(=O)CC3CCCCC3)CC2)cc1` [4-(2-Cyclohexyl-acetyl)-[1,4]diazepane-1-carboxylic acid (4-tert-butyl-phenyl)-amide], the agonistic activity entry is listed as “agonistic activity”.

`CC(C)c1ccc(NC(=S)N2CCCN(C(=O)CC3CCCC3)CC2)cc1` [4-(2-Cyclopentyl-acetyl)-[1,4]diazepane-1-carbothioic acid (4-isopropyl-phenyl)-amide]: the agonistic activity entry was “agonistic activity”.

Turning to `CC(=O)N1CCc2ccc(NC(=O)N3CCCN(C(=O)CC4CCCC4)CC3)cc21` [4-(2-Cyclopentyl-acetyl)-[1,4]diazepane-1-carboxylic acid (1-acetyl-2,3-dihydro-1H-indol-6-yl)-amide], the agonistic activity result is reported as “agonistic activity”.

Take `O=C(CC1CCCC1)N1CCCN(C(=O)Nc2ccc3c(c2)OC(F)(F)O3)CC1` [4-(2-Cyclopentyl-acetyl)-[1,4]diazepane-1-carboxylic acid (2,2-difluoro-benzo[1,3]dioxol-5-yl)-amide]: the agonistic activity result is “agonistic activity”.

Turning to `O=C(CC1CCCC1)N1CCCN(C(=O)Nc2ccc(Cl)cc2Cl)CC1` [4-(2-Cyclopentyl-acetyl)-[1,4]diazepane-1-carboxylic acid (2,4-dichloro-phenyl)-amide], the agonistic activity result is on record as “agonistic activity”.

For the molecule `O=C(CC1CCCC1)N1CCCN(C(=O)Nc2cc(Cl)ccc2Cl)CC1` [4-(2-Cyclopentyl-acetyl)-[1,4]diazepane-1-carboxylic acid (2,5-dichloro-phenyl)-amide], the agonistic activity entry is reported as “agonistic activity”.

Turning to `O=C(CC1CCCC1)N1CCCN(C(=O)Nc2ccc3ccccc3c2)CC1` [4-(2-Cyclopentyl-acetyl)-[1,4]diazepane-1-carboxylic acid (2-naphthyl)-amide], the agonistic activity result is listed as “agonistic activity”.

With `O=C(CC1CCCC1)N1CCCN(C(=O)Nc2ccc(Cl)c(Cl)c2)CC1` [4-(2-Cyclopentyl-acetyl)-[1,4]diazepane-1-carboxylic acid (3,4-dichloro-phenyl)-amide], the agonistic activity result is “agonistic activity”.
